Data from paper PMC7179312 (Antimicrobial Agents and Chemotherapy, 2020).

Columns and labels:
[1] = tested on: P. aeruginosa PAM1154 carrying pUCP24-KPC-2 (PAM4135); test: MIC, CLSI broth microdilution; format: cell-based; conditions: Pseudomonas aeruginosa; PAM4135, pUCP24-KPC-2; drug alone
Description: (§1) The effects of KPC mutations on resistance to various antibiotics were investigated. For these studies, pUCP24 plasmids carrying wild-type and mutant blaKPC-2 genes as well as the pUCP24 vector were transformed into PAM1154, an efflux-deficient strain of Pseudomonas aeruginosa. In this host, the effect of β-lactamases on β-lactam MIC is amplified due to the slowed uptake of β-lactams across the low-permeability outer membrane without interference by efflux of either β-lactams or BLIs. Consequently, this host allows detection of β-lactamase activity (as an MIC increase) of low-catalytic-efficiency enzymes that rely heavily on the low permeability of the outer membrane. Using the strain that lacks efflux pumps ensures no interference from efflux in interpreting results. We next evaluated the steady-state protein expression levels in bacterial cells.
(§2) For microbiological studies, wild-type blaKPC-2 and its mutant variants were cloned into the shuttle vector pUCP24. Resulting plasmids were transformed in the efflux-deficient strain of P. aeruginosa PAM1154 using selection on 15 μg/ml of gentamicin. Using a strain of P. aeruginosa as opposed to E. coli as a host for various cloned genes was based on the following consideration. As well documented elsewhere ([41]), P. aeruginosa has a low-permeability outer membrane; consequently, the effect of β-lactamases on MIC is amplified in P. aeruginosa compared to that in E. coli due to the slowed uptake of β-lactams. Thus, this host is appropriate to detect β-lactamase activity (as an MIC increase) of low-catalytic-efficiency enzymes that rely heavily on low permeability of the outer membrane. […] MICs were determined using the Clinical and Laboratory Standards Institute (CLSI) broth microdilution method as described in CLSI document M07-A11 ([42]). […] BLI potency was defined as PV50 (PV, potentiation value). PV50 is the minimal concentration of a BLI that is required to reduce the antibiotic MIC to the middle of the MIC range (E50) where the highest MIC is the MIC for a KPC-producing strain with no inhibitor added and the lowest MIC is the MIC for the vector-only strain, corresponding to the complete inhibition of KPC. E50 is calculated as the square root of the product of the antibiotic MICs for the KPC-producing and the vector-only strains.

[2] = tested on: P. aeruginosa PAM1154 carrying pUCP24 vector (PAM4175); test: MIC, CLSI broth microdilution; format: cell-based; conditions: Pseudomonas aeruginosa, drug alone
Description: as §1, with “cells. […] The observed discrepancy with our results could be attributed to the difference in either the expression vector or host bacteria.” for “cells.”
For microbiological studies, wild-type blaKPC-2 and its mutant variants were cloned into the shuttle vector pUCP24. Resulting plasmids were transformed in the efflux-deficient strain of P. aeruginosa PAM1154 using selection on 15 μg/ml of gentamicin. Using a strain of P. aeruginosa as opposed to E. coli as a host for various cloned genes was based on the following consideration. As well documented elsewhere ([41]), P. aeruginosa has a low-permeability outer membrane; consequently, the effect of β-lactamases on MIC is amplified in P. aeruginosa compared to that in E. coli due to the slowed uptake of β-lactams. Thus, this host is appropriate to detect β-lactamase activity (as an MIC increase) of low-catalytic-efficiency enzymes that rely heavily on low permeability of the outer membrane. […] MICs were determined using the Clinical and Laboratory Standards Institute (CLSI) broth microdilution method as described in CLSI document M07-A11 ([42]). Potentiation of antibiotic activity by various BLIs in bacterial strains carrying wild-type (WT) and mutant KPC-2 genes was performed using standard checkerboard methodology ([43]). BLI potency was defined as PV50 (PV, potentiation value). PV50 is the minimal concentration of a BLI that is required to reduce the antibiotic MIC to the middle of the MIC range (E50) where the highest MIC is the MIC for a KPC-producing strain with no inhibitor added and the lowest MIC is the MIC for the vector-only strain, corresponding to the complete inhibition of KPC. E50 is calculated as the square root of the product of the antibiotic MICs for the KPC-producing and the vector-only strains.

[3] = tested on: P. aeruginosa PAM1154 carrying pUCP24-KPC-2::D179Y (PAM4639); test: MIC, CLSI broth microdilution; format: cell-based, Pseudomonas aeruginosa; conditions: for MIC: Pseudomonas aeruginosa, PAM4639, pUCP24-KPC-2::D179Y, drug alone
Description: as §1, §2

[4] = tested on: P. aeruginosa PAM1154 carrying pUCP24-KPC-2::L169P (PAM4751); test: MIC, CLSI broth microdilution; format: cell-based, Pseudomonas aeruginosa; conditions: for MIC: Pseudomonas aeruginosa, PAM4751, pUCP24-KPC-2::L169P, drug alone
Description: as §1, §2

[5] = tested on: CC(C)(O/N=C(\C(=O)N[C@@H]1C(=O)N2C(C(=O)[O-])=C(C[n+]3ccccc3)CS[C@H]12)c1csc(N)n1)C(=O)O; test: purified protein, by the assay type; format: biochemical; conditions: other: substrate hydrolysis by purified KPC-2; pH 7.0; 37.0 °C
[6] = tested on: P. aeruginosa PAM1154 carrying pUCP24 vector (PAM4175); test: Checkerboard potentiation of antibiotic activity by BLIs; format: cell-based, Pseudomonas aeruginosa
Description: BLI potency was defined as PV50 (PV, potentiation value) of antibiotic potentiation. PV50 is the concentration of a BLI that is required to reduce the antibiotic MIC to the middle of the MIC range where the highest MIC is the MIC for a KPC-producing strain with no inhibitor added and the lowest MIC is the MIC for the vector-alone strain, which corresponds to complete inhibition of KPC. As a given MIC is directly related to the β-lactamase activity, PV50 might be considered the concentration of a BLI that is required to achieve half-effect of inhibition of β-lactamase activity (in whole cells) to hydrolyze an antibiotic of interest. […] However, the accurate determination of PV50 requires the MIC range to be relatively wide.
as §2
7 MIC range between the MIC of the beta-lactamase producing strain and the MIC of the vector only strain. The middle point is calculated as the square root of the product of the
8 antibiotic MIC values for the beta-lactamas e-producing and the vector onl y strain.

[7] = molecular target: T1, KPC-2 D179Y (Klebsiella pneumoniae, UniProt Q9F663, D178Y); test: Kinetics of nitrocefin and ceftazidime hydrolysis by purified enzyme; format: biochemical
T1 construct: 6xHis (C); made in house; host or cells: E. coli BL21(DE3) pLys, pET28a
Method: (§3) Enzymes were mixed with various concentrations of nitrocefin in 50 mM sodium phosphate (pH 7.0)–0.1 mg/ml of bovine serum albumin (buffer A), and substrate cleavage was monitored at 490 nm every 10 s for 10 min at 37°C on a SpectraMax plate reader (Molecular Devices, San Jose, CA). Initial rates of nitrocefin cleavage were calculated and used to obtain Km and kcat values with Prism software (GraphPad, San Diego, CA).
(§4) Substrate cleavage was monitored at 260 nm every 30 s at room temperature using a SpectraMax plate reader. The reaction was monitored until OD260 values reached a plateau. Resulting OD260 versus time reaction profiles were fitted to the following equation using Prism software: At = A∞ + (A0 − A∞) × e^−k×t, where At is absorbance at time t, A0 is initial absorbance, and A∞ is final absorbance. In this equation, k = kcat/Km × [E], which allows calculatation of kcat/Km knowing the enzyme concentration ([44]).

[8] = molecular target: T2, KPC-2 L169P (Klebsiella pneumoniae, UniProt Q9F663, L168P); test: as above; format: biochemical
T2 construct: 6xHis (C); made in house; host or cells: E. coli (pET28a construct; BL21(DE3) pLys is named only for wild type and D179Y)
Method: as §3, §4

[9] = molecular target: T3, KPC-2 (Klebsiella pneumoniae, UniProt Q9F663); test: as above; format: biochemical; conditions: substrate hydrolysis by purified KPC-2
T3 construct: 6xHis (C); made in house; host or cells: E. coli BL21(DE3) pLys, pET28a
Method: as §3, §4

[10] = substrate hydrolysis by purified KPC-2 D179Y
[11] = substrate hydrolysis by purified KPC-2 L169P

For `C[C@@H](O)[C@H]1C(=O)N2C(C(=O)O)=C(S[C@@H]3CN[C@H](C(=O)N(C)C)C3)[C@H](C)[C@H]12` [Meropenem, meropenem], the MIC [1] was 64 µg/mL, the MIC [2] was 0.125 µg/mL and the “reduction of MIC vs wild-type KPC-2 strain” value ([3]; D179Y strain) was 64 fold. For the same molecule, the MIC [3] was 1 µg/mL, the “increase of MIC vs vector-only strain” value ([3]; {}) was 8-16 fold and the “reduction of MIC vs wild-type KPC-2 strain” value ([4]; L169P strain) was 64 fold. The MIC [4] was 1 µg/mL and the “increase of MIC vs vector-only strain” value ([4]; {}) was 8-16 fold.

For KPC-2 (Klebsiella pneumoniae), the kcat [5] was > 2.6 s⁻¹ and the kcat/Km [5] was 870 ± 110 M⁻¹ s⁻¹.

For `CCN1CCN(C(=O)N[C@@H](C(=O)N[C@@H]2C(=O)N3[C@@H]2SC(C)(C)[C@@H]3C(=O)O)c2ccccc2)C(=O)C1=O` [Piperacillin, piperacillin], the “Beta-lactam MIC in the presence of BLI” value ([6]; avibactam 0 µg/ml) was 0.125 µg/mL, the “Beta-lactam MIC in the presence of BLI” value ([6]; avibactam 0.008 µg/ml) was 0.125 µg/mL and the “Beta-lactam MIC in the presence of BLI” value ([6]; avibactam 0.031 µg/ml) was 0.125 µg/mL. The “Beta-lactam MIC in the presence of BLI” value ([6]; avibactam 0.06 µg/ml) was 0.125 µg/mL, the “Beta-lactam MIC in the presence of BLI” value ([6]; avibactam 0.5 µg/ml) was 0.125 µg/mL and the “Beta-lactam MIC in the presence of BLI” value ([6]; avibactam 64 µg/ml) was 0.03 µg/mL. The “Beta-lactam MIC in the presence of BLI” value ([6]; avibactam […]) was 0.125 µg/mL, the “Beta-lactam MIC in the presence of BLI” value ([6]; vaborbactam 0 µg/ml) was 0.125 µg/mL and the “Beta-lactam MIC in the presence of BLI” value ([6]; vaborbactam 0.008 µg/ml) was 0.125 µg/mL. For the same molecule, the “Beta-lactam MIC in the presence of BLI” value ([6]; vaborbactam 0.031 µg/ml) was 0.125 µg/mL, the “Beta-lactam MIC in the presence of BLI” value ([6]; vaborbactam 0.06 µg/ml) was 0.125 µg/mL and the “Beta-lactam MIC in the presence of BLI” value ([6]; vaborbactam 0.5 µg/ml) was 0.125 µg/mL. For the same molecule, the “Beta-lactam MIC in the presence of BLI” value ([6]; vaborbactam 1 µg/ml) was 0.125 µg/mL, the “Beta-lactam MIC in the presence of BLI” value ([6]; vaborbactam 2 µg/ml) was 0.125 µg/mL and the “Beta-lactam MIC in the presence of BLI” value ([6]; vaborbactam 4 µg/ml) was 0.125 µg/mL. For the same molecule, the “Beta-lactam MIC in the presence of BLI” value ([6]; vaborbactam 8 μg/ml) was 0.125 µg/mL, the “Beta-lactam MIC in the presence of BLI” value ([6]; vaborbactam 16 µg/ml) was 0.125 µg/mL and the “Beta-lactam MIC in the presence of BLI” value ([6]; vaborbactam […]) was 0.125 µg/mL. It also gave an MIC [2] of 0.06 µg/mL.

Molecule `C[C@H]1[C@H](NC(=O)/C(=N\OC(C)(C)C(=O)O)c2csc(N)n2)C(=O)N1S(=O)(=O)O` [Aztreonam, aztreonam] has an MIC [2] of 0.125 µg/mL.

`CC(C)(O/N=C(\C(=O)N[C@@H]1C(=O)N2C(C(=O)[O-])=C(C[n+]3ccccc3)CS[C@H]12)c1csc(N)n1)C(=O)O` [Ceftazidime, ceftazidime] was tested, and the “Antibiotic MIC, No BLI” value ([6]; no BLI) was 0.25 µg/mL, the MIC [1] was 32 µg/mL and the MIC [2] was 0.25 µg/mL. The MIC [3] was 512 µg/mL and the MIC [4] was 256 µg/mL.

With `O=C(Cc1cccs1)N[C@@H]1C(=O)N2C(C(=O)O)=C(/C=C/c3ccc([N+](=O)[O-])cc3[N+](=O)[O-])CS[C@H]12` [Nitrocefin, nitrocefin] the “reduction of kcat vs wild-type KPC-2” value ([7]; KPC-2 D179Y) was “approximately 6,000 fold”, the Km [7, 10] was 26 ± 12 µM and the kcat [7, 10] was 0.023 ± 0.002 s⁻¹. For the same molecule, the “reduction of kcat vs wild-type KPC-2” value ([8]; KPC-2 L169P) was ~300 fold, the Km [8, 11] was 40 ± 10 µM and the kcat [8, 11] was 0.47 ± 0.04 s⁻¹. For the same molecule, the Km [9] was 36 ± 5 µM and the kcat [9] was 132 ± 13 s⁻¹.
